Measurements as given in patent publication US7632829B2, “Diazepan derivatives” (Hoffmann-La Roche Inc., priority 2006, dated 2009).

Target: T1, human chemokine receptor 2 isoform B (Homo sapiens, UniProt P41597)
T1 construct: host or cells: CHOK1-CCR2B-A5 (CHO-K1)
T1 sequence (P41597 1-360 isoform P41597-2): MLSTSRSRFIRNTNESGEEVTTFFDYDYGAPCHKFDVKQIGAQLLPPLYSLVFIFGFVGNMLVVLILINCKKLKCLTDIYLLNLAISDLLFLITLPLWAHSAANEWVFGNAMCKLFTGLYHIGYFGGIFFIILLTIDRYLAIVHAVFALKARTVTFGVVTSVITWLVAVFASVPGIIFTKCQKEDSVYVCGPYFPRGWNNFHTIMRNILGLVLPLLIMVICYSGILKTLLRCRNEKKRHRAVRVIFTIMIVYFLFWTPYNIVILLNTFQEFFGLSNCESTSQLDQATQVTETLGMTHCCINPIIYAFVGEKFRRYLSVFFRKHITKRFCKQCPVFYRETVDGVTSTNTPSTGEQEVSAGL
Experiment: Calcium mobilization assay (FLIPR, CHOK1-CCR2B-A5 cells, 20 nM MCP-1)
Type: cell-based
Settings: Ca mobilisation assay, CCR2, antagonist activity vs 20 nM MCP-1
Protocol: CHOK1-CCR2B-A5 cells (from Euroscreen) stably overexpressing the human chemokine receptor 2 isoform B were cultured in Nutrient Hams F12 medium supplemented with 5% FBS, 100 U/ml penicillin, 100 μg/ml streptomycin, 400 μg/ml G418 and 5 μg/ml puromycin.
For the assay cells were grown overnight in 384-well black clear flat bottom polystyrene plates (Costar) at 37° C. at 5% CO2. After washing with DMEM, 20 mM Hepes, 2.5 mM probenecid, 0.1% BSA (DMEM assay buffer) cells were loaded with 4 μM Fluo-4 in the same DMEM assay buffer for 2 hours at 30° C. Excess dye was removed and cells were washed with DMEM assay buffer. 384-well compound plates were prepared with DMEM assay buffer/0.5% DMSO with or without various concentrations of test compounds. Usually compounds were tested for agonist and antagonist activity.
Test compounds were added to the assay plate and agonist activity was monitored as fluorescence for 80 seconds with a FLIPR (488 nm excitation; 510-570 nm emission; Molecular Devices). After 20-30 min. of incubation at 30° C., 20 nM MCP-1 (R&D; Roche) was added and fluorescence was monitored again for 80 seconds. Increases in intracellular calcium are reported as maximum fluorescence after agonist exposure minus basal fluorescence before exposure. Antagonist activity is indicated as inhibitor concentration required for 50% inhibition of specific calcium increases.

Row | Molecule | IC50 [nM]
1 | 1-[(E)-3-(3,4-Dichloro-phenyl)-acryloyl]-4-[3-(4-methyl-piperazin-1-yl)-propyl]-[1,4]diazepan-5-one [Example 75] | 267
2 | 4-(3-{4-[(E)-3-(3,4-Dichloro-phenyl)-acryloyl]-7-oxo-[1,4]diazepan-1-yl}-propylamino)-cyclohexanecarboxylic acid amide [Example 77] | 326
3 | 4-(3-{4-[(E)-3-(3,4-Dichloro-phenyl)-acryloyl]-7-oxo-[1,4]diazepan-1-yl}-propylamino)-cyclohexanecarboxylic acid ethyl ester [Example 67] | 241
4 | 4-[3-(4-Methyl-4-hydroxy-piperidin-1-yl)-propyl]-1-[(E)-3-(3,4-dichloro-phenyl)-acryloyl]-[1,4]diazepan-5-one [Example 76] | 219
5 | 4-[3-(Cyclohexy-methyl-amino)-ethyl]-1-[(E)-3-(3,4-dichloro-phenyl)-acryloyl]-[1,4]diazepan-5-one [Example 111] | 335
6 | CC1CCC(N(C)CCCN2CCN(C(=O)/C=C/c3ccc(Cl)c(Cl)c3)CCC2=O)CC1 (mixture of isomers) [Example 54, cis/trans-1-[(E)-3-(3,4-Dichloro-phenyl)-acryloyl]-4-{3-[methyl-(4-methyl-cyclohexyl)-amino]-propyl}-[1,4]diazepan-5-one] | 747
7 | CC1CCCCC1NCCCN1CCN(C(=O)C=Cc2ccc(Cl)c(Cl)c2)CCC1=O (mixture of isomers) [Example 64, cis/trans-1-[(E)-3-(3,4-Dichloro-phenyl)-acryloyl]-4-[3-(2-methyl-cyclohexylamino)-propyl]-[1,4]diazepan-5-one] | 391
8 | CC1CCCCC1NCCN1CCN(C(=O)C=Cc2ccc(Cl)c(Cl)c2)CCC1=O (mixture of isomers) [Example 104, cis/trans-1-[(E)-3-(3,4-Dichloro-phenyl)-acryloyl]-4-[3-(2-methyl-cyclohexylamino)-ethyl]-[1,4]diazepan-5-one] | 598
9 | CC1CCC(N(C)CCN2CCN(C(=O)/C=C/c3ccc(Cl)c(Cl)c3)CCC2=O)CC1 (mixture of isomers) [Example 124, cis/trans-1-[(E)-3-(3,4-Dichloro-phenyl)-acryloyl]-4-{3-[methyl-(4-methyl-cyclohexyl)-amino]-ethyl}-[1,4]diazepan-5-one] | 667
10 | CC1CCC(NCCN2CCN(C(=O)/C=C/c3ccc(Cl)c(Cl)c3)CCC2=O)CC1 (mixture of isomers) [Example 138, cis/trans-1-[(E)-3-(3,4-Dichloro-phenyl)-acryloyl]-4-{3-[(4-methyl-cyclohexyl)-amino]-ethyl}-[1,4]diazepan-5-one] | 1260
11 | CC1C(O)CCCN1CCCN1CCN(C(=O)C=Cc2ccc(F)c(Cl)c2)CCC1=O (mixture of isomers) [Example 208, (rac,trans)-1-[(E)-3-(3-Chloro-4-fluoro-phenyl)-acryloyl]-4-[3-(3-hydroxy-2-methyl-piperidin-1-yl)-propyl]-[1,4]diazepan-5-one] | 780
12 | CC1C(O)CCCN1CCCN1CCN(C(=O)C=Cc2ccc(F)c(Cl)c2)CCC1=O (mixture of isomers) [Example 209, (rac,cis)-1-[(E)-3-(3-Chloro-4-fluoro-phenyl)-acryloyl]-4-[3-(3-hydroxy-2-methyl-piperidin-1-yl)-propyl]-[1,4]diazepan-5-one] | 1390
13 | O=C(C=Cc1ccc(F)c(Cl)c1)N1CCC(=O)N(CCCN2CCC(F)C(O)C2)CC1 (mixture of isomers) [Example 213, (rac,trans)-1-[(E)-3-(3-Chloro-4-fluoro-phenyl)-acryloyl]-4-[3-(4-fluoro-3-hydroxy-piperidin-1-yl)-propyl]-[1,4]diazepan-5-one] | 421
14 | O=C(C=Cc1ccc(F)c(Cl)c1)N1CCC(=O)N(CCCN2CCC(O)C(F)C2)CC1 (mixture of isomers) [Example 214, (rac,trans)-1-[(E)-3-(3-Chloro-4-fluoro-phenyl)-acryloyl]-4-[3-(3-fluoro-4-hydroxy-piperidin-1-yl)-propyl]-[1,4]diazepan-5-one] | 592
15 | CC1CC(O)CN(CCCN2CCN(C(=O)C=Cc3ccc(F)c(Cl)c3)CCC2=O)C1 (mixture of isomers) [Example 224, (rac,cis)-1-[(E)-3-(3-Chloro-4-fluoro-phenyl)-acryloyl]-4-[3-(3-hydroxy-5-methyl-piperidin-1-yl)-propyl]-[1,4]diazepan-5-one] | 14
16 | CC1C(O)CCCN1CCCN1CCN(C(=O)C=Cc2ccc(Cl)c(Cl)c2)CCC1=O (mixture of isomers) [Example 225, (rac,trans)-1-[(E)-3-(3,4-Dichlorophenyl)-acryloyl]-4-[3-(3-hydroxy-2-methyl-piperidin-1-yl)-propyl]-[1,4]diazepan-5-one] | 243
17 | O=C(C=Cc1ccc(Cl)c(Cl)c1)N1CCC(=O)N(CCCN2CCC(O)C(F)C2)CC1 (mixture of isomers) [Example 231, (rac,trans)-1-[(E)-3-(3,4-Dichloro-phenyl)-acryloyl]-4-[3-(3-fluoro-4-hydroxy-piperidin-1-yl)-propyl]-[1,4]diazepan-5-one] | 218
18 | O=C(C=Cc1ccc(Cl)c(Cl)c1)N1CCC(=O)N(CCCN2CCC(CO)C(O)C2)CC1 (mixture of isomers) [Example 266, (rac,cis)-1-[(E)-3-(3,4-Dichloro-phenyl)-acryloyl]-4-[3-(3-hydroxy-4-hydroxymethyl-piperidin-1-yl)-propyl]-[1,4]diazepan-5-one] | 77
19 | COC1COCCC1NCCCN1CCN(C(=O)C=Cc2ccc(Cl)c(Cl)c2)CCC1=O (mixture of isomers) [Example 275, (rac,cis)-1-[(E)-3-(3,4-Dichloro-phenyl)-acryloyl]-4-[3-(3-methoxy-tetrahydro-pyran-4-ylamino)-propyl]-[1,4]diazepan-5-one] | 1090
20 | CC1CC(O)CN(CCCN2CCN(C(=O)C=Cc3ccc(Cl)c(Cl)c3)CCC2=O)C1 (mixture of isomers) [Example 279, (rac,cis)-1-[(E)-3-(3,4-Dichloro-phenyl)-acryloyl]-4-[3-(3-hydroxy-5-methyl-piperidin-1-yl)-propyl]-[1,4]diazepan-5-one] | 5
21 | O=C(/C=C/c1ccc(Cl)c(Cl)c1)N1CCC(=O)N(C[C@@H](O)CN2CC[C@H](CO)[C@H](O)C2)CC1 (mixture of isomers) [Example 328, 1-[(E)-3-(3,4-Dichloro-phenyl)-acryloyl]-4-[(S)-2-hydroxy-3-(cis-3-hydroxy-4-hydroxymethyl-piperidin-1-yl)-propyl]-[1,4]diazepan-5-one] | 28
22 | COC[C@H]1CCN(C[C@H](O)CN2CCN(C(=O)/C=C/c3ccc(Cl)c(Cl)c3)CCC2=O)C[C@H]1O (mixture of isomers) [Example 329, 1-[(E)-3-(3,4-Dichloro-phenyl)-acryloyl]-4-[(S)-2-hydroxy-3-(cis-3-hydroxy-4-methoxymethyl-piperidin-1-yl)-propyl]-[1,4]diazepan-5-one] | 137
23 | O=C(/C=C/c1ccc(Cl)c(Cl)c1)N1CCC(=O)N(C[C@@H](O)CN2CC[C@@H](CO)[C@H](O)C2)CC1 (mixture of isomers) [Example 333, 1-[(E)-3-(3,4-Dichloro-phenyl)-acryloyl]-4-[(S)-2-hydroxy-3-(trans-3-hydroxy-4-hydroxymethyl-piperidin-1-yl)-propyl]-[1,4]diazepan-5-one] | 301
24 | C[C@@H]1C[C@H](O)CN(C[C@H](O)CN2CCN(C(=O)/C=C/c3ccc(Cl)c(Cl)c3)CCC2=O)C1 (mixture of isomers) [Example 335, 1-[(E)-3-(3,4-Dichloro-phenyl)-acryloyl]-4-[(S)-2-hydroxy-3-(cis-3-hydroxy-5-methyl-piperidin-1-yl)-propyl]-[1,4]diazepan-5-one] | 13
25 | O=C(/C=C/c1ccc(F)c(Cl)c1)N1CCC(=O)N(C[C@@H](O)CN2CC[C@H](CO)[C@H](O)C2)CC1 (mixture of isomers) [Example 337, 1-[(E)-3-(3-Chloro-4-fluoro-phenyl)-acryloyl]-4-[(S)-2-hydroxy-3-(cis-3-hydroxy-4-hydroxymethyl-piperidin-1-yl)-propyl]-[1,4]diazepan-5-one] | 71
26 | COC[C@H]1CCN(C[C@H](O)CN2CCN(C(=O)/C=C/c3ccc(F)c(Cl)c3)CCC2=O)C[C@H]1O (mixture of isomers) [Example 338, 1-[(E)-3-(3-Chloro-4-fluoro-phenyl)-acryloyl]-4-[(S)-2-hydroxy-3-(cis-3-hydroxy-4-methoxymethyl-piperidin-1-yl)-propyl]-[1,4]diazepan-5-one] | 553
